Data reported in patent US20240400647A1, “Biologically Active Collagen Hybridizing Peptides” (3HELIX, INC., priority 2021, published 2024).

Tested on: IMR-90 human lung fibroblasts
Test: IMR-90 fibroblast culture with peptides, gelatin or collagen added to media
Format: cell-based
Conditions: 30 μg/mL added to media, imaged after three days at 37° C.
Experimental: IMR-90 human lung fibroblasts were purchased from ITCC. Cells were thawed and cultured in EMEM supplemented with 10% FBS and 1% Pen-Strep. Cells were cultured to 80-95% confluency then sub-cultured for three passages prior to utilization in experiments.
Experimental wells were prepared by adding 100 μL cell media to wells of a 96-well gelatin coated plate (corning) or 300 μL media to the wells of a 48-well uncoated cell culture plate. Peptides, as listed below, were added to each well (5 μL to 96 well plates, 10 μL to 48 well plates).
During passaging, cells were quantified, and 2100 IMR-90 cells were added to each well of the 96 well gelatin-coated plate. For the uncoated plate IMR-90 cells were added to each well. Additional media was added to bring the volume to 200 μL (96 well) or 500 μL (48 well). Cells were cultured at 37° C., 5% CO2 for three days then imaged. […] Media was added one day later (day 4) then allowed to culture an additional 2 days before imaging and lysing cells. qPCR was performed on cell lysate following cDNA synthesis (cell-to-CT kit, Thermo Fisher scientific).

| Substance | confluence and directionality of cell growth |
| --- | --- |
| collagen | higher confluence and more directionality in cell growth |
| gelatin | higher confluence and more directionality in cell growth |
